Consider two compounds from patent US20040210959A1, “A Novel Method for Production of Transformed Dihaploid Corn Plants” (MONSANTO TECHNOLOGY LLC, priority 2003, published 2004).

In assay [1] the test system is corn line D haploid callus. Briefly: Chromosome doubling of haploid callus with colchicine; ploidy of regenerated plants by flow cytometry. It is filed as cell-based. To be noted: 3 days; for Diploid plants / Haploid plants / Tetraploid plants: 0.025% colchicine. The source says:
When a sufficient amount of transgenic callus has grown (approximately 0.25 g), the haploid callus can be doubled to produce dihaploid callus. The callus can be transferred to a 100×20 mm petri plate that contains a structure for supporting callus in a liquid medium such as three filter papers or 2 pieces of 100% acrylic felt. Those of skill in the art are aware of the numerous modifications to liquid media for supporting cultured tissues. To the Petri dish can be added a suitable culture medium lacking selection agents but containing 0.025% colchicine or other chromosome doubling agents such as Oryzalin, pronamide, or APM (amiprophos-methyl) as known to one of skill in the art (i.e., Wan et al., Theor. Appl. Genet., 81: 205-211, 1991). Enough medium and chromosome doubling agent is added to the Petri dish to keep the callus support moist, but not so much that it covers the callus. The callus is then incubated at 28° C. for 3 days in the dark.
After the co-cultivation, the callus pieces were transferred onto two pieces of 2cm^2×1 mm thick 100% acrylic felt with approximately 25 mL liquid MSW57 (Table 3) supplemented with 750 mg/L carbenicillin and 100 mg/L paromomycin in petri dishes (100 mm×25 mm) with 16 calli per plate. The plates were kept in a dark culture room at 28° C. for approximately 7-10 days after which the old medium was removed by aspiration and fresh selection medium was added to the plates. After two 10-day selection periods, the old medium was removed by aspiration and replaced with fresh MSW57 medium containing 0.025% colchicine. The tissues remained on the colchicine medium for 3 days after which the colchicine medium was removed by aspiration and replaced with fresh selection medium containing 750 mg/L carbenicillin and 100 mg/L paromomycin.
After an additional two 10-day selection periods on selection medium, the cultures were moved to a culture room with 16-h light/8-h dark photoperiod at 28° C. and the liquid medium was replaced with liquid MS-6BA medium (Table 3) with 100 mg/L paromomycin and 500 mg/L carbenicillin. After 7 days, the callus pieces were transferred onto the second regeneration medium, a hormone-free MS-based medium (MSOD, Table 3) with 100 mg/L paromomycin in petri dishes (100 mm×25 mm). In another 2 weeks, the callus pieces that had shoots regenerated or were still alive were transferred onto the same hormone-free medium in Phytatrays for further growth. Regenerated plants (R0) when they reached to the top of Phytatrays and had one or more healthy roots were moved to soil in peat pots in a growth chamber. In 7 to 10 days, they were transplanted into 12-in pots after determining by flow cytometry that they were doubled haploids. Using this procedure, 23 transgenic events were produced from a total of 528 pieces of callus exposed to Agrobacterium and selection on paromomycin (Table 6).

In assay [2] the test system is immature embryos and callus from inbred X KHI/pehA crosses. Briefly: Negative selection of pehA-containing immature embryos/callus on callus induction medium with glyceryl glyphosate. To be noted: 10 to 14 days on callus induction medium; glyceryl glyphosate 0 to 5 mM. It is filed as cell-based, corn. The source says: An efficient identification of corn haploid immature embryos, and callus derived from them, can be achieved by using the negative selectable marker gene pehA (phosphonate monoesterase). Cells that express the pehA gene convert the non-toxic glycerol glyphosate to toxic glyphosate and subsequently die. It is understood, however, that other negative selectable marker genes such as cytosine deaminase (which converts 5-fluorocytosine to 5-fluorouracil, which is toxic to cell growth [Plant Cell Reports 2001; 20:738-743]) may also be used equally effectively.
Inbred lines selected for the production of haploid immature embryos or callus can be pollinated with KHI that has been transformed with, and is homozygous for, the selectable marker gene pehA. After culturing on media containing glyceryl glyphosate, diploid (pehA containing) explants fail to grow, whereas maternal haploid explants produce callus typical of the maternal inbred.
Inbred lines selected for the production of haploid immature embryos or callus were pollinated with KHI that had been transformed with, and was homozygous for, the selectable marker gene pehA. The resulting ears were harvested when their embryos were 1.25 to 2.25 mm in size. Immature embryos were plated on suitable culture media to induce the desired type of callus. […]

Molecules are shown by their SMILES.

As for `COc1cc2c(c(OC)c1OC)-c1ccc(OC)c(=O)cc1[C@@H](NC(C)=O)CC2` [colchicine], the “doubling chromosomes of haploid callus” value in assay [1] (corn line D haploid callus, MSW57 medium with 0.025% colchicine) was “effective in doubling chromosomes”. The Diploid plants turned out to be 67% in assay [1] (haploid callus line S33-B2); 50% in assay [1] (haploid callus line S41-A1); 33% in assay [1] (haploid callus line S42-B4); 50% in assay [1] (haploid callus line S43-B1); 100% in assay [1] (haploid callus line S49-B1). Further, the Haploid plants worked out at 33% in assay [1] (haploid callus line S33-B2); 50% in assay [1] (haploid callus line S41-A1); 33% in assay [1] (haploid callus line S42-B4); 17% in assay [1] (haploid callus line S43-B1); 33% in assay [1] (haploid callus line S55-B1). Besides, the Tetraploid plants in assay [1] (haploid callus line S42-B4) turned out to be 33%; in assay [1] (haploid callus line S43-B1), 33%; in assay [1] (haploid callus line S55-B1), 67%.

As for `O=C(O)CNCP(=O)(O)OCC(O)CO` (stereo not shown) [glyceryl glyphosate], in assay [2], the “growth of diploid (pehA containing) immature embryos” value is “failed to grow” and the “growth of maternal haploid immature embryos” value is reported as “produced callus typical of maternal inbred”.
